Earlier results as cited in patent US20130116279A1, “BICYCLIC HETEROARYL INHIBITORS OF PDE4” (KALYPSYS, INC., priority 2011, published 2013).

Tested on: recombinant human PDE4
Details: inhibiting recombinant human PDE4, reported

SMILES: COc1ccc(C2CNC(=O)C2)cc1OC1CCCC1 (stereo not shown) [rolipram]
- IC50: ~200 nM
